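GI50 = concentration required for 50% inhibition of growth. TGI: total growth inhibition.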
Columns and labels:
Test in all cases: NCI-60 cell line screen, 384-well format
786-0 renal = test system: 786-0 renal
A498 renal = test system: A498 renal
A549 NSCLC = test system: A549 NSCLC
ACHN renal = test system: ACHN renal
BT-549 breast = test system: BT-549 breast
CAKI-1 renal = test system: CAKI-1 renal
CCRF-CEM leukemia = test system: CCRF-CEM leukemia
COLO 205 colon = test system: COLO 205 colon
DU-145 prostate = test system: DU-145 prostate
EKVX NSCLC = test system: EKVX NSCLC
HCC-2998 colon = test system: HCC-2998 colon
HCT-116 colon = test system: HCT-116 colon
HCT-15 colon = test system: HCT-15 colon
HL-60(TB) leukemia = test system: HL-60(TB) leukemia
HOP-62 NSCLC = test system: HOP-62 NSCLC
HOP-92 NSCLC = test system: HOP-92 NSCLC
HS 578T breast = test system: HS 578T breast
HT29 colon = test system: HT29 colon
IGROV1 ovarian = test system: IGROV1 ovarian
K-562 leukemia = test system: K-562 leukemia
KM12 colon = test system: KM12 colon
LOX IMVI melanoma = test system: LOX IMVI melanoma
M14 melanoma = test system: M14 melanoma
MALME-3M melanoma = test system: MALME-3M melanoma
MCF7 breast = test system: MCF7 breast
MDA-MB-231 breast = test system: MDA-MB-231 breast
MDA-MB-435 melanoma = test system: MDA-MB-435 melanoma
MDA-MB-468 breast = test system: MDA-MB-468 breast
MOLT-4 leukemia = test system: MOLT-4 leukemia
NCI-H226 lung = test system: NCI-H226 lung
NCI-H23 lung = test system: NCI-H23 lung
NCI-H322M lung = test system: NCI-H322M lung
NCI-H460 NSCLC = test system: NCI-H460 NSCLC
NCI-H522 lung = test system: NCI-H522 lung
NCI/ADR-RES ovarian = test system: NCI/ADR-RES ovarian
OVCAR-3 ovarian = test system: OVCAR-3 ovarian
OVCAR-4 ovarian = test system: OVCAR-4 ovarian
OVCAR-8 ovarian = test system: OVCAR-8 ovarian
PC-3 prostate = test system: PC-3 prostate
RPMI-8226 leukemia = test system: RPMI-8226 leukemia
RXF 393 renal = test system: RXF 393 renal
SF-268 CNS = test system: SF-268 CNS
SF-295 CNS = test system: SF-295 CNS
SF-539 CNS = test system: SF-539 CNS
SK-MEL-28 melanoma = test system: SK-MEL-28 melanoma
SK-MEL-5 melanoma = test system: SK-MEL-5 melanoma
SK-OV-3 ovarian = test system: SK-OV-3 ovarian
SN12C renal = test system: SN12C renal
SNB-19 CNS = test system: SNB-19 CNS
SNB-75 CNS = test system: SNB-75 CNS
SR leukemia = test system: SR leukemia
SW-620 colon = test system: SW-620 colon
T-47D breast = test system: T-47D breast
TK-10 renal = test system: TK-10 renal
U251 glioblastoma = test system: U251 glioblastoma
UACC-257 melanoma = test system: UACC-257 melanoma
UACC-62 melanoma = test system: UACC-62 melanoma
UO-31 renal = test system: UO-31 renal

## CC(=O)N1c2ccc(-c3ccc(C(=O)O)cc3)cc2[C@H](Nc2ccc(Cl)cc2)C[C@@H]1C
786-0 renal
  GI50: 74.9 nM
  TGI: 24200 nM
A498 renal
  GI50: 239 nM
  TGI: 13500 nM
A549 NSCLC
  GI50: 456 nM
  TGI: 18600 nM
ACHN renal
  GI50: 558 nM
  TGI: 19700 nM
BT-549 breast
  GI50: 43 nM
  TGI: 11400 nM
CAKI-1 renal
  GI50: 31.3 nM
  TGI: 2560 nM
CCRF-CEM leukemia
  GI50: 60.5 nM
  TGI: 8770 nM
COLO 205 colon
  GI50: 146 nM
  TGI: 10900 nM
DU-145 prostate
  GI50: 638 nM
  TGI: > 100000 nM
EKVX NSCLC
  GI50: 1390 nM
  TGI: 46400 nM
HCC-2998 colon
  GI50: 62.8 nM
  TGI: 676 nM
HCT-116 colon
  GI50: 180 nM
  TGI: 12800 nM
HCT-15 colon
  GI50: 53.5 nM
  TGI: 10300 nM
HL-60(TB) leukemia
  GI50: < 10 nM
  TGI: 25.9 nM
HOP-62 NSCLC
  GI50: 47.8 nM
  TGI: 7200 nM
HOP-92 NSCLC
  GI50: 49.7 nM
  TGI: 16400 nM
HS 578T breast
  GI50: 20.7 nM
  TGI: 185 nM
HT29 colon
  GI50: 73.3 nM
  TGI: 15700 nM
IGROV1 ovarian
  GI50: 75.6 nM
  TGI: 18800 nM
K-562 leukemia
  GI50: 84.2 nM
  TGI: 16800 nM
KM12 colon
  GI50: 193 nM
  TGI: 15500 nM
LOX IMVI melanoma
  GI50: 48.1 nM
  TGI: 209 nM
M14 melanoma
  GI50: 144 nM
  TGI: 15500 nM
MALME-3M melanoma
  GI50: 30.9 nM
  TGI: 1600 nM
MCF7 breast
  GI50: 19.5 nM
  TGI: 10200 nM
MDA-MB-231 breast
  GI50: 61.8 nM
  TGI: 75200 nM
MDA-MB-435 melanoma
  GI50: 669 nM
  TGI: 42600 nM
MDA-MB-468 breast
  GI50: 171 nM
  TGI: 10500 nM
MOLT-4 leukemia
  GI50: 54.1 nM
  TGI: 2060 nM
NCI-H226 lung
  GI50: 57.4 nM
  TGI: 2510 nM
NCI-H23 lung
  GI50: 137 nM
  TGI: 11400 nM
NCI-H322M lung
  GI50: 201 nM
  TGI: 13300 nM
NCI-H460 NSCLC
  GI50: 467 nM
  TGI: 15400 nM
NCI-H522 lung
  GI50: 24.3 nM
  TGI: 1310 nM
NCI/ADR-RES ovarian
  GI50: 129 nM
  TGI: 3300 nM
OVCAR-3 ovarian
  GI50: 57 nM
  TGI: 11300 nM
OVCAR-4 ovarian
  GI50: 104 nM
  TGI: 659 nM
OVCAR-8 ovarian
  GI50: 77 nM
  TGI: 3100 nM
PC-3 prostate
  GI50: 369 nM
  TGI: 20600 nM
RPMI-8226 leukemia
  GI50: < 10 nM
  TGI: 108 nM
RXF 393 renal
  GI50: 702 nM
  TGI: 20800 nM
SF-268 CNS
  GI50: 386 nM
  TGI: 19500 nM
SF-295 CNS
  GI50: 975 nM
  TGI: 17300 nM
SF-539 CNS
  GI50: 314 nM
  TGI: 11200 nM
SK-MEL-28 melanoma
  GI50: 89.5 nM
  TGI: 15000 nM
SK-MEL-5 melanoma
  GI50: 208 nM
  TGI: 13100 nM
SK-OV-3 ovarian
  GI50: 101 nM
  TGI: 14100 nM
SN12C renal
  GI50: 108 nM
  TGI: 20900 nM
SNB-19 CNS
  GI50: 166 nM
  TGI: 27000 nM
SNB-75 CNS
  GI50: 213 nM
  TGI: 49300 nM
SR leukemia
  GI50: < 10 nM
  TGI: 50.2 nM
SW-620 colon
  GI50: 2990 nM
  TGI: 22000 nM
T-47D breast
  GI50: 240 nM
  TGI: 12400 nM
TK-10 renal
  GI50: 48.6 nM
  TGI: 2650 nM
U251 glioblastoma
  GI50: 488 nM
  TGI: 21700 nM
UACC-257 melanoma
  GI50: 192 nM
  TGI: 53600 nM
UACC-62 melanoma
  GI50: 22.2 nM
  TGI: 2740 nM
UO-31 renal
  GI50: 200 nM
  TGI: 13000 nM

— PubChem BioAssay (NCI)
